According to US20250304535A1, “KAT6 Inhibitors” (BeiGene Switzerland GmbH, priority 2024, published 2025):

What was measured:
[1] = target: Recombinant human KAT6A protein (497-780) (Homo sapiens (Human), UniProt Q92794); assay: KAT6A biochemical TR-FRET assay; conditions: histone H4 peptide 2000 nM, AcCoA 300 nM, enzyme 5 nM
Description: Enzymatic reactions of KAT6A and KAT6B were performed using Fluorescence Resonance Energy Transfer (TR-FRET) assay, which measures acetylation of a synthetic, biotinylated histone-H4 peptide by the KAT6A and KAT6B enzymes. Recombinant human KAT6A protein (497-780) were expressed in BL21 cell using an E. coli expression system. Recombinant human KAT6B protein (657-1069) was expressed in sf9 cell using a baculovirus expression system. […] Acetyl coenzyme A was purchased from Sigma-Aldrich (#A-2056).
Testing for the inhibition activities of various compounds disclosed herein was carried out at room temperature in assay buffer containing 100 mM Tris/HCl Ph7.8, 15 mM NaCl, 0.01% chicken egg white albumin, 1 mM DTT and 0.01% Tween-20. Compounds in DMSO were dispensed into wells of a black, 384-well plate (Corning 4514) using ECHO555 (Beckman). The final concentration ranges of the test compounds were 0.0625-1,000 nM, 0.625-10,000 nM, or 0.313-5,000 nM. Five μL of KAT6A or KAT6B enzyme solution were added to wells, and the plate was incubated for 1 hour at room temperature (rt). After incubation for 1 hour at rt, 5 μL H4 and AcCoA substrate solutions were added to the wells to initiate reaction, and the plate was incubated. After 2 hours reaction, 5 μL detection reagent were added to the wells, and the plate was incubated for 2 hours. After two hours incubation, detection reagent containing 5 nM Anti-histone H4 antibody (ABCAM #ab177790), 100 μM formic acid (sigma #06473-100ML), 0.1 test/μL streptavidin-XL665 (PerkinElmer #610SAXLG), 0.05 test/μL PAb anti-rabbit IgG-Eu (PerkinElmer μ61PARKLA) was added to the wells. TR-FRET was measured on a microplate reader (PHERAstar FSX, BMG labtech). […] In Table 6, I≤5 nM, 5 nM<II≤50 nM.

[2] = target: Recombinant human KAT6B protein (657-1069) (Homo sapiens (Human), UniProt Q8WYB5); assay: KAT6B biochemical TR-FRET assay; conditions: histone H4 peptide 1000 nM, AcCoA 100 nM, enzyme 5 nM
Chain of Recombinant human KAT6B protein (657-1069) (Q8WYB5 657-1069): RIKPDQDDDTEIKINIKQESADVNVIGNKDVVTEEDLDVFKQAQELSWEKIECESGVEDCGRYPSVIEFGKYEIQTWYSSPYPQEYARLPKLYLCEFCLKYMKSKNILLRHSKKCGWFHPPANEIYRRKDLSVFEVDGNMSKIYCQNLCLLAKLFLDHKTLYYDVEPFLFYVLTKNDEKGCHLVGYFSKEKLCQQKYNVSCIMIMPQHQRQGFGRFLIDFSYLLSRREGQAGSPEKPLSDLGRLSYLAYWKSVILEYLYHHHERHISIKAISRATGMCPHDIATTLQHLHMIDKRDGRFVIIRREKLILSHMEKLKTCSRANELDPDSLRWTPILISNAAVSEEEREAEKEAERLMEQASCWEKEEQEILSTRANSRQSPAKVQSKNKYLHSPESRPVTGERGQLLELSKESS
Description: Enzymatic reactions of KAT6A and KAT6B were performed using Fluorescence Resonance Energy Transfer (TR-FRET) assay, which measures acetylation of a synthetic, biotinylated histone-H4 peptide by the KAT6A and KAT6B enzymes. Recombinant human KAT6A protein (497-780) were expressed in BL21 cell using an E. coli expression system. Recombinant human KAT6B protein (657-1069) was expressed in sf9 cell using a baculovirus expression system. Histone H4 peptide (SEQ ID NO: 1—[…]-GGK-Biotin), which was used as substrate, was synthesized by GL Biochem, Shanghai, China. Acetyl coenzyme A was purchased from Sigma-Aldrich (#A-2056).
Testing for the inhibition activities of various compounds disclosed herein was carried out at room temperature in assay buffer containing 100 mM Tris/HCl Ph7.8, 15 mM NaCl, 0.01% chicken egg white albumin, 1 mM DTT and 0.01% Tween-20. Compounds in DMSO were dispensed into wells of a black, 384-well plate (Corning 4514) using ECHO555 (Beckman). The final concentration ranges of the test compounds were 0.0625-1,000 nM, 0.625-10,000 nM, or 0.313-5,000 nM. Five μL of KAT6A or KAT6B enzyme solution were added to wells, and the plate was incubated for 1 hour at room temperature (rt). After incubation for 1 hour at rt, 5 μL H4 and AcCoA substrate solutions were added to the wells to initiate reaction, and the plate was incubated. After 2 hours reaction, 5 μL detection reagent were added to the wells, and the plate was incubated for 2 hours. After two hours incubation, detection reagent containing 5 nM Anti-histone H4 antibody (ABCAM #ab177790), 100 μM formic acid (sigma #06473-100ML), 0.1 test/μL streptavidin-XL665 (PerkinElmer #610SAXLG), 0.05 test/μL PAb anti-rabbit IgG-Eu (PerkinElmer μ61PARKLA) was added to the wells. TR-FRET was measured on a microplate reader (PHERAstar FSX, BMG labtech). The IC50s were calculated based on inhibition of enzyme activity in the presence of increasing concentrations of test compounds, and the results are shown in Table 6. In Table 6, I≤5 nM, 5 nM<II≤50 nM.

[3] = tested on: histone H3K23 acetylation in U-2 OS cells; assay: Histone H3 lysine 23 acetylation assay in U-2 OS cells (high content analysis); type: cell-based; conditions: Homo sapiens, U2OS, 24 hrs exposure, H3K23ac level
Description: Assay B: Histone H3 lysine 23 Acetylation Assay
Compounds were tested for their capacity to suppress the histone H3K23 acetylation in the following high content analysis assay.
The cell line U-2 OS (ATCC HTB-96) was seeded at a density of 2000 cells per well in black 384 well cell culture/imaging microplates in 45 μl McCoy's 5A medium with […]. After overnight incubation in 37° C., 5% CO2 incubator, cells were then treated with a 9-point dilution series of compounds and a blank control group with medium containing 0.1% DMSO.
Following a 24 hrs exposure to the compounds, the cells were fixed with 4% immunohistochemical fixative for 20 mins at room temperature, washed with DPBS with 2% fetal bovine serum, and permed with Perm Buffer III for 30 min on ice, washed with DPBS with 2% fetal bovine serum. Then the cells were blocked with Odyssey blocking buffer containing 0.1% Tween 20. 20 ul Anti-Histone H3 (acetyl K23) antibody (Abcam, ab177275) in odyssey blocking buffer containing 0.1% Tween20 was added and incubated overnight at 4° C. After incubation, the cells were washed for 3 times and a secondary antibody Anti-rabbit IgG (H+L), F(ab′)2 Fragment (Alexa Fluor® 647 Conjugate) (CST, 4414S) were added into cells for one hour. The cells were washed and 1 ug/ml DAPI (Thermo, 62248) were added for 10 min. Then cells were washed and read on the PerkinElmer Operetta CLS high content analysis system. The nuclei were identified by DAPI and H3K23ac level was calculated from the Alexa Fluor 647 intensity in the nuclei. Inhibition rate of H3K23ac was calculated as the mean intensity of cells per well relative to blank controls on the same plate.

Chain of Recombinant human KAT6A protein (497-780) (Q92794 497-780): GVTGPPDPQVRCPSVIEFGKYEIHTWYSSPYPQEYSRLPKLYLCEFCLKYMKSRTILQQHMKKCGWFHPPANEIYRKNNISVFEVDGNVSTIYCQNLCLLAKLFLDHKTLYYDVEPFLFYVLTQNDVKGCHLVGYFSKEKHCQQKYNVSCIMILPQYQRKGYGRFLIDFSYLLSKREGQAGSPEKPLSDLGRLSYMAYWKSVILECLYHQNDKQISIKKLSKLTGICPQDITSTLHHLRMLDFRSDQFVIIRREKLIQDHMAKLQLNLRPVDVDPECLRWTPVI

SMILES | IC50 [1] | IC50 [2] | IC50 [3]
COc1ccc(C(C)(C)C)nc1S(=O)(=O)NC(=O)c1ccc(Cn2ccc(N)n2)c(OC)n1 [Example C37, 5-((3-amino-1H-pyrazol-1-yl)methyl)-N-((6-(tert-butyl)-3-methoxypyridin-2-yl)sulfonyl)-6-methoxypicolinamide] | ≤ 5 nM | ≤ 5 nM | ≤ 10 nM
COc1ccc(C(C)(C)C)nc1S(=O)(=O)NC(=O)c1ccc(Cn2cccn2)c(N2CCC2)c1 [Example C20, 4-((1H-pyrazol-1-yl)methyl)-3-(azetidin-1-yl)-N-((6-(tert-butyl)-3-methoxypyridin-2-yl)sulfonyl)benzamide] | ≤ 5 nM | ≤ 5 nM | ≤ 10 nM
COc1ccc(C(C)(C)C)nc1S(=O)(=O)NC(=O)c1ccc(Cn2cccn2)c(F)c1 [Example C24, 4-((1H-pyrazol-1-yl)methyl)-N-((6-(tert-butyl)-3-methoxypyridin-2-yl)sulfonyl)-3-fluorobenzamide] | ≤ 5 nM | ≤ 5 nM | 10 to 100 nM
C=Cc1cc(C(=O)NS(=O)(=O)c2c(OC)ccc3c2OC(C)(C)C3)ccc1Cn1cccn1 [Example C44, 4-((1H-pyrazol-1-yl)methyl)-N-((6-methoxy-2,2-dimethyl-2,3-dihydrobenzofuran-7-yl)sulfonyl)-3-vinylbenzamide] | ≤ 5 nM | ≤ 5 nM | ≤ 10 nM
COc1ccc(C(C)(C)C)nc1S(=O)(=O)NC(=O)c1ccc(Cn2cccn2)c(C2CCC2)c1 [Example C21, 4-((1H-pyrazol-1-yl)methyl)-N-((6-(tert-butyl)-3-methoxypyridin-2-yl)sulfonyl)-3-cyclobutyl-benzamide] | ≤ 5 nM | ≤ 5 nM | ≤ 10 nM
COc1ccc(C(C)(C)C(F)(F)F)nc1S(=O)(=O)NC(=O)c1ccc(Cn2cccn2)c(OC)n1 [Example C54, 5-((1H-pyrazol-1-yl)methyl)-6-methoxy-N-((3-methoxy-6-(1,1,1-trifluoro-2-methylpropan-2-yl)pyridin-2-yl)sulfonyl)picolinamide] | ≤ 5 nM | ≤ 5 nM | ≤ 10 nM
COc1ccccc1S(=O)(=O)NC(=O)c1ccc(Cn2cccn2)c(OC)n1 [Example C68, 5-((1H-pyrazol-1-yl)methyl)-6-methoxy-N-((2-methoxyphenyl)sulfonyl) picolinamide] | 5 to 50 nM | ≤ 5 nM | ≤ 10 nM
COc1ccc(C2(C)CCOCC2)cc1S(=O)(=O)NC(=O)c1ccc(Cn2cccn2)c(OC)n1 [Example C70, 5-((1H-pyrazol-1-yl)methyl)-6-methoxy-N-((2-methoxy-5-(4-methyltetrahydro-2H-pyran-4-yl)phenyl)sulfonyl) picolinamide] | ≤ 5 nM | ≤ 5 nM | ≤ 10 nM

Now from value to compound:

IC50 [1] | IC50 [2] | IC50 [3] | SMILES
≤ 5 nM | ≤ 5 nM | ≤ 10 nM | COc1ccc2c(c1S(=O)(=O)NC(=O)c1ccc(Cn3cccn3)c(C3CC3)n1)OC(C)(C)C2 [Example C46, 5-((1H-pyrazol-1-yl)methyl)-6-cyclopropyl-N-((6-methoxy-2,2-dimethyl-2,3-dihydrobenzofuran-7-yl)sulfonyl)picolinamide]
≤ 5 nM | ≤ 5 nM | ≤ 10 nM | COc1ccc(C(C)(C)C)cc1S(=O)(=O)NC(=O)c1ccc(Cn2cccn2)c(Br)c1 [Example C14, 4-((1H-pyrazol-1-yl)methyl)-3-bromo-N-((5-(tert-butyl)-2-methoxyphenyl)sulfonyl)benzamide]
≤ 5 nM | ≤ 5 nM | ≤ 10 nM | COc1ccc(C(C)(C)C)cc1S(=O)(=O)NC(=O)c1ccc(Cn2cccn2)c(C)c1 [Example C3, 4-((1H-pyrazol-1-yl)methyl)-N-((5-(tert-butyl)-2-methoxyphenyl)sulfonyl)-3-methylbenzamide]
≤ 5 nM | ≤ 5 nM | ≤ 10 nM | COc1ccc(C2(C(F)(F)F)CC2)cc1S(=O)(=O)NC(=O)c1ccc(Cn2cccn2)c(OC)n1 [Example C59, 5-((1H-pyrazol-1-yl)methyl)-6-methoxy-N-((2-methoxy-5-(1-(trifluoromethyl)cyclopropyl)phenyl)sulfonyl)picolinamide]
≤ 5 nM | ≤ 5 nM | ≤ 10 nM | COc1ccc(C2(C)COC2)cc1S(=O)(=O)NC(=O)c1ccc(Cn2cccn2)c(OC)n1 [Example C75, 5-((1H-pyrazol-1-yl)methyl)-6-methoxy-N-((2-methoxy-5-(3-methyloxetan-3-yl)phenyl)sulfonyl) picolinamide]
≤ 5 nM | ≤ 5 nM | ≤ 10 nM | COc1ccc2c(c1S(=O)(=O)NC(=O)c1ccc(Cn3cccn3)c(C3CC3)n1)OCC2(C)C [Example C47, 5-((1H-pyrazol-1-yl)methyl)-6-cyclopropyl-N-((6-methoxy-3,3-dimethyl-2,3-dihydrobenzofuran-7-yl)sulfonyl)picolinamide]
≤ 5 nM | ≤ 5 nM | ≤ 10 nM | COc1ccc2c(c1S(=O)(=O)NC(=O)c1ccc(Cn3cccn3)c(OC)n1)OCC2(C)C [Example C43, 5-((1H-pyrazol-1-yl)methyl)-6-methoxy-N-((6-methoxy-3,3-dimethyl-2,3-dihydrobenzofuran-7-yl)sulfonyl)picolinamide]
≤ 5 nM | ≤ 5 nM | ≤ 10 nM | COc1ccc(C23CC(C2)C3)nc1S(=O)(=O)NC(=O)c1ccc(Cn2cccn2)c(OC)n1 [Example C79, 5-((1H-pyrazol-1-yl)methyl)-N-((6-(bicyclo[1.1.1]pentan-1-yl)-3-methoxypyridin-2-yl)sulfonyl)-6-methoxypicolinamide]
≤ 5 nM | ≤ 5 nM | ≤ 10 nM | COc1ccc(C(C)(C)C)nc1S(=O)(=O)NC(=O)c1ccc(Cn2cccn2)c(Cl)c1 [Example C22, 4-((1H-pyrazol-1-yl)methyl)-N-((6-(tert-butyl)-3-methoxypyridin-2-yl)sulfonyl)-3-chlorobenzamide]
